Assay [1] relates to metal-dependent proteases. Put plainly: Protease assay with resorufin-labeled casein in harvest solution (conditioned medium). Type of assay: biochemical, Chinese Hamster. Conditions: for Mean absorbance corrected: blank subtracted. The procedure: The method chosen was a protease assay with casein which was resorufin-labeled. By treatment with proteases, resorufin-labeled peptides are released from the casein. The concentration of these resorufin-labeled peptides in the supernatant is a measure of the proteolytic activity present. The test sample was incubated at 37° C. for a period of time which was dependent upon the sample at issue. The absorption wave-length chosen was 574 run throughout the tests. […]
Preincubation of the conditioned medium with or without EDTA was conducted at 37° C. for 2 h. After the addition of substrate, further incubation was carried out for 17 h. The pH in the incubation mixture was 7.5.
Absorbance corrected, refers to the absorption after subtraction of the blank value.
Conditioned medium (containing human serum albumin) was clarified and imidazole subsequently added in an amount ranging from 3.6 mM up to 360 mM.
Conditioned medium (containing human serum albumin) was clarified and histidine subsequently added in an amount ranging from 0.14 mM to 13.6 mM.

Another assay deals with factor VIII. Put plainly: Activity of factor VIII after addition of complexing agent to eluted solution from SP Sepharose FF, COATEST chromogenic assay. Type of assay: biochemical. Conditions: Example 8; for Factor VIII activity (%): 0 h without additive = 100. The procedure: Tests without EDTA present were carried out for comparison.
A conditioned medium (containing human serum albumin) from a different harvest than the previous Examples, was clarified and buffered with NH4 Ac. […] After elution, various amounts of EDTA were added to the resulting solution. Tests without EDTA present were carried out for comparison. The procoagulant activity of factor VIII was determined after storage at ambient temperature for up to 246 hours, in accordance to the procedure described in Example 5.
A conditioned medium (containing human serum albumin) from a different harvest than the previous Examples, was clarified and buffered with NH4 Ac. […] After elution, various amounts of EDTA were added to the resulting solution. Tests without EDTA present were carried out for comparison. The procoagulant activity of factor VIII was determined after storage at ambient temperature for up to 28 hours, in accordance to the procedure described in Example 5.
A conditioned medium (containing human serum albumin) from a different harvest than the previous Examples, was clarified and buffered with NH4 Ac. The resulting solution was loaded onto a column containing SP SEPHAROSE® FF. This cation-exchange chromatography step was performed at 10° C. […] After elution, EDTA or 1,10-Phenanthroline were added to the resulting solution.

The mark [2] stands for this setting: 5 mM Phenanthroline, incubation 4.5 h ambient.
[3] abbreviates: 5 mM Phenanthroline, incubation 7.5 h ambient.
Setting [4] is: 5 mM Phenanthroline, incubation 24 h ambient.
The mark [5] stands for this setting: 11 mM Phenanthroline, incubation 4.5 h ambient.
Setting [6] is: 11 mM Phenanthroline, incubation 7.5 h ambient.
[7] abbreviates: 11 mM Phenanthroline, incubation 24 h ambient.

As for `N[C@@H](Cc1c[nH]cn1)C(=O)O` [Histidine, L-histidine], the Mean absorbance was 2561 in assay [1] (0.14 mM histidine); 2857 in assay [1] (0.7 mM histidine); 3153 in assay [1] (1.4 mM histidine); 1495 in assay [1] (7 mM histidine); 1684 in assay [1] (13.6 mM histidine). The “Protease activity (%)” value in assay [1] (0.14 mM histidine) was found to be 79%; in assay [1] (0.7 mM histidine) it was 94%; in assay [1] (1.4 mM histidine) it was 108%; in assay [1] (7 mM histidine) it was 26%; in assay [1] (13.6 mM histidine), 35%. Also, the Mean absorbance corrected in assay [1] (0.14 mM histidine) is reported as 1591; in assay [1] (0.7 mM histidine) it was 1887; in assay [1] (1.4 mM histidine), 2183; in assay [1] (7 mM histidine), 525; in assay [1] (13.6 mM histidine), 714.

As to `c1cnc2c(c1)ccc1cccnc12` [Phenanthroline, 1,10-Phenanthroline], the “Factor VIII activity (IU/ml)” value with factor VIII (setting [2]) worked out at 750 IU/ml; with factor VIII (setting [3]) it was 964 IU/ml; in the assay on factor VIII (setting [4]), 933 IU/ml; with factor VIII (setting [5]), 869 IU/ml; in the assay with factor VIII (setting [6]), 996 IU/ml; with factor VIII (setting [7]), 916 IU/ml. The “Factor VIII activity (%)” value in the assay with factor VIII (setting [2]) is 84%; in the assay on factor VIII (setting [3]) it was 109%; in the assay on factor VIII (setting [4]), 105%; in the assay with factor VIII (setting [5]), 98%; in the assay on factor VIII (setting [6]) it was 112%; in the assay on factor VIII (setting [7]), 103%.

As to `c1c[nH]cn1` [imidazole], the Mean absorbance in assay [1] (3.6 mM imidazole) was 2891; in assay [1] (18 mM imidazole) it was 2985; in assay [1] (36 mM imidazole) it was 3190; in assay [1] (180 mM imidazole), 1258; in assay [1] (360 mM imidazole), 1143. The “Protease activity (%)” value worked out at 95% in assay [1] (3.6 mM imidazole); 100% in assay [1] (18 mM imidazole); 110% in assay [1] (36 mM imidazole); 14% in assay [1] (180 mM imidazole); 9% in assay [1] (360 mM imidazole). The Mean absorbance corrected in assay [1] (3.6 mM imidazole) is 1921; in assay [1] (18 mM imidazole), 2015; in assay [1] (36 mM imidazole), 2220; in assay [1] (180 mM imidazole), 288; in assay [1] (360 mM imidazole), 173.

The values are drawn from US5831026A, “Process for purifying factor VIII” (Pharmacia & Upjohn AB, priority 1994, dated 1998).
